Measured values as given in US10154813B1, “Method and apparatus for patient skin color monitoring and drug efficacy measurement” (priority 2017, dated 2018).
Values joined by “and” are separate entries in the source; they are usually repeats but may differ in a detail not shown here. Equal values may be shown once.

System: microvascular endothelium (skin, right arm, anterior position) of Congestive Heart Failure patients
Experiment: Skin colorimetry (a, b, L) before and after application of “μ” in Congestive Heart Failure patients on Valsartan, monthly for 9 months
Type: in vivo, human
Set-up: key to a. Wet after “μ”: a = red/green colour coordinate (colorimeter); key to b (Wet): b = yellow/blue colour coordinate (colorimeter)
Conditions: for L / a / b: baseline before μ; for L (Wet) / a. Wet after “μ” / b (Wet): wet after μ
Text: As stated above, one available quantitative color system is the L*a*b* color space or Hunter L/a/b color space, which can be visualized as a rectangular 3D coordinate system. L indicates lightness, a is the red/green coordinate, and b is the yellow/blue coordinate. L can have a value from 0 (black) to 100 (perfect reflection). The a and b axes have no numerical limits. Coordinate a is positive when red, and negative when green. Positive b is yellow, and negative b is blue. Colors can be described numerically using numerical values for L, a, and b. Differences between two colors can be quantified for each of the individual L/a/b values (ΔL, Δa, Δb). Overall differences between two colors can be derived numerically based on the three Δ values.
μ=drug applied before colorimeter and/or spectrophotometer measurements.
L1, a1, b1=Initial measurement.
L2, a2, b2=Measurement with μ applied. L2−L1=ΔLμ(L2 minus L1)=change in lightness and darkness(+=lighter,−=darker) a2−a1=Δaμ(a2 minus a1)=change in red and green(+=redder,−=greener) b2−b1=Δbμ(b2 minus b1)=change in yellow and blue(+=yellower,−=bluer)
With reference to the tables below and to FIG. 18, the three different patients (Patient A, Patient B, and Patient C) had new diagnosis of Congestive Heart Failure (CHF). Patient A, B, C have diastolic and systolic heart failure with an ejection fraction of 35% with normal coronary artery disease by angiography. All three patients were started on an angiotensin receptor blocker Valsartan and followed continuously every month for 9 months. The a, b, L were calculated before and after the “μ” has been applied shown in color red. The blue indicates the baseline. At the initiation of the CHF medication Valsartan, the patient has a normal response of the microvascular endothelium after the application of “μ” in the calculations of a, b, L. All colorimetric and spectrophotometric calculations are performed at the same location on the right arm, in the anterior position in all three patients continuously for 9 months. The titration of Valsartan was maximized in all three patients. […] This occurs because it is the desired effect of the CHF medication in the above patients over the period of 9 months. The current standard of care is to improve the heart function in CHF. The cardiologist lowers the ionotropic and chronotropic effect of the heart in CHF patients. The above methodology allows for the appropriate and desired effect in being able to titrate the medication and know how much medicine to administer to the patient by either decreasing or increasing the Valsartan dose. This is performed to achieve the necessary effect of pharmacotherapy with limiting the exacerbation of heart failure symptoms in such patients. It allows for healthcare providers to also know if the effects of the medications are adequate and they are in fact working appropriately on the microscopic endothelium level of the patient. As the months progressed in the patients above, the red line calculations indicate a decreased microvascular endothelial flow. This is evaluated by measuring a decrease in the a shift.
This correlates with a decrease in the ionotropic and chronotropic effect of the heart in these patients. This is the desired effect and outcome that the cardiologist is trying to achieve. The calculation of a, b, L, after “μ” is applied is objectively calculated in these CHF patients, allowing for the proper titration of maximum medication administration while limiting the side effects of the medications concurrently.

CCCCC(=O)N(Cc1ccc(-c2ccccc2-c2nnn[nH]2)cc1)[C@H](C(=O)O)C(C)C [Valsartan]
L (Patient A, April 2017): 70.87
a (Patient A, April 2017): 5.05
b (Patient A, April 2017): 16.72
L (Patient A, December 2016): 70.63
a (Patient A, December 2016): 5.20
b (Patient A, December 2016): 16.61
L (Patient A, February 2017): 70.24
a (Patient A, February 2017): 5.12
b (Patient A, February 2017): 15.42
L (Patient A, January 2017): 71.68
a (Patient A, January 2017): 4.70
b (Patient A, January 2017): 14.67
L (Patient A, July 2017): 71.63
a (Patient A, July 2017): 5.48
b (Patient A, July 2017): 14.62
L (Patient A, June 2017): 69.91
a (Patient A, June 2017): 5.02
b (Patient A, June 2017): 15.64
L (Patient A, March 2017): 70.42
a (Patient A, March 2017): 5.14
b (Patient A, March 2017): 16.14
L (Patient A, May 2017): 71.99
a (Patient A, May 2017): 4.98
b (Patient A, May 2017): 15.47
L (Patient A, November 2016): 70.10
a (Patient A, November 2016): 5.59
b (Patient A, November 2016): 15.39
L (Wet) (Patient A, April 2017): 70.72
a. Wet after “μ” (Patient A, April 2017): 4.54
b (Wet) (Patient A, April 2017): 16.78
L (Wet) (Patient A, December 2016): 69.98
a. Wet after “μ” (Patient A, December 2016): 6.35
b (Wet) (Patient A, December 2016): 16.81
L (Wet) (Patient A, February 2017): 70.12
a. Wet after “μ” (Patient A, February 2017): 6.08
b (Wet) (Patient A, February 2017): 16.44
L (Wet) (Patient A, January 2017): 71.76
a. Wet after “μ” (Patient A, January 2017): 6.48
b (Wet) (Patient A, January 2017): 16.48
L (Wet) (Patient A, July 2017): 70.04
a. Wet after “μ” (Patient A, July 2017): 4.46
b (Wet) (Patient A, July 2017): 16.31
L (Wet) (Patient A, June 2017): 70.54
a. Wet after “μ” (Patient A, June 2017): 4.43
b (Wet) (Patient A, June 2017): 15.89
L (Wet) (Patient A, March 2017): 69.42
a. Wet after “μ” (Patient A, March 2017): 4.64
b (Wet) (Patient A, March 2017): 16.85
L (Wet) (Patient A, May 2017): 69.79
a. Wet after “μ” (Patient A, May 2017): 4.20
b (Wet) (Patient A, May 2017): 15.62
L (Wet) (Patient A, November 2016): 68.40
a. Wet after “μ” (Patient A, November 2016): 7.06
b (Wet) (Patient A, November 2016): 16.16
L (Patient B, April 2017): 73.95
a (Patient B, April 2017): 3.25
b (Patient B, April 2017): 15.34
L (Patient B, December 2016): 72.77
a (Patient B, December 2016): 3.36
b (Patient B, December 2016): 4.88
L (Patient B, February 2017): 74.52
a (Patient B, February 2017): 3.06
b (Patient B, February 2017): 13.98
L (Patient B, January 2017): 74.06
a (Patient B, January 2017): 2.66
b (Patient B, January 2017): 15.09
L (Patient B, July 2017): 74.23
a (Patient B, July 2017): 4.20
b (Patient B, July 2017): 14.14
L (Patient B, June 2017): 74.05
a (Patient B, June 2017): 3.85
b (Patient B, June 2017): 14.35
L (Patient B, March 2017): 74.43
a (Patient B, March 2017): 3.09
b (Patient B, March 2017): 14.08
L (Patient B, May 2017): 73.52
a (Patient B, May 2017): 3.40
b (Patient B, May 2017): 15.02
L (Patient B, November 2016): 73.44
a (Patient B, November 2016): 4.15
b (Patient B, November 2016): 13.69
L (Wet) (Patient B, April 2017): 72.58
a. Wet after “μ” (Patient B, April 2017): 3.03
b (Wet) (Patient B, April 2017): 15.69
L (Wet) (Patient B, December 2016): 73.59
a. Wet after “μ” (Patient B, December 2016): 4.04
b (Wet) (Patient B, December 2016): 15.27
L (Wet) (Patient B, February 2017): 72.56
a. Wet after “μ” (Patient B, February 2017): 3.3
b (Wet) (Patient B, February 2017): 14.4
L (Wet) (Patient B, January 2017): 74.23
a. Wet after “μ” (Patient B, January 2017): 3.37
b (Wet) (Patient B, January 2017): 15.38
L (Wet) (Patient B, July 2017): 72.54
a. Wet after “μ” (Patient B, July 2017): 2.25
b (Wet) (Patient B, July 2017): 14.39
L (Wet) (Patient B, June 2017): 72.47
a. Wet after “μ” (Patient B, June 2017): 2.88
b (Wet) (Patient B, June 2017): 15.29
L (Wet) (Patient B, March 2017): 72.62
a. Wet after “μ” (Patient B, March 2017): 3.29
b (Wet) (Patient B, March 2017): 15.85
L (Wet) (Patient B, May 2017): 73.47
a. Wet after “μ” (Patient B, May 2017): 3.71
b (Wet) (Patient B, May 2017): 15.54
L (Wet) (Patient B, November 2016): 70.43
a. Wet after “μ” (Patient B, November 2016): 4.89 and 4.79
b (Wet) (Patient B, November 2016): 15.14
L (Patient C, April 2017): 73.05
a (Patient C, April 2017): 3.16
b (Patient C, April 2017): 16.12
L (Patient C, December 2016): 75.47
a (Patient C, December 2016): 2.84
b (Patient C, December 2016): 13.73
L (Patient C, February 2017): 73.55
a (Patient C, February 2017): 3.64
b (Patient C, February 2017): 14.96
L (Patient C, January 2017): 74.63
a (Patient C, January 2017): 3.93
b (Patient C, January 2017): 15.73
L (Patient C, July 2017): 75.00
a (Patient C, July 2017): 3.55
b (Patient C, July 2017): 14.75
L (Patient C, June 2017): 74.45
a (Patient C, June 2017): 3.44
b (Patient C, June 2017): 14.63
L (Patient C, March 2017): 74.06
a (Patient C, March 2017): 3.20
b (Patient C, March 2017): 14.54
L (Patient C, May 2017): 75.26
a (Patient C, May 2017): 3.50
b (Patient C, May 2017): 15.22
L (Patient C, November 2016): 73.84
a (Patient C, November 2016): 3.35
b (Patient C, November 2016): 14.01
L (Wet) (Patient C, April 2017): 72.89
a. Wet after “μ” (Patient C, April 2017): 2.95
b (Wet) (Patient C, April 2017): 17.26
L (Wet) (Patient C, December 2016): 72.57
a. Wet after “μ” (Patient C, December 2016): 4.84
b (Wet) (Patient C, December 2016): 14.8
L (Wet) (Patient C, February 2017): 72.41
a. Wet after “μ” (Patient C, February 2017): 3.07
b (Wet) (Patient C, February 2017): 15.66
L (Wet) (Patient C, January 2017): 74.12
a. Wet after “μ” (Patient C, January 2017): 3.18
b (Wet) (Patient C, January 2017): 15.31
L (Wet) (Patient C, July 2017): 74.72
a. Wet after “μ” (Patient C, July 2017): 2.3
b (Wet) (Patient C, July 2017): 14.39
L (Wet) (Patient C, June 2017): 72.13
a. Wet after “μ” (Patient C, June 2017): 2.75
b (Wet) (Patient C, June 2017): 15.6
L (Wet) (Patient C, March 2017): 73.55
a. Wet after “μ” (Patient C, March 2017): 3.05
b (Wet) (Patient C, March 2017): 13.67
L (Wet) (Patient C, May 2017): 73.69
a. Wet after “μ” (Patient C, May 2017): 3.1
b (Wet) (Patient C, May 2017): 15.17
L (Wet) (Patient C, November 2016): 71.42
a. Wet after “μ” (Patient C, November 2016): 4.99
b (Wet) (Patient C, November 2016): 14.01
effect on flow to the microvascular circulation of the endothelium (a shift after μ) (Patients A, B, C, at rest, over 9 months, maximized titration): a decrease in the flow to the microvascular circulation of the endothelium at rest
